We go through six compounds from PMC4683533, “Discovery of novel INK4C small-molecule inhibitors to promote human and murine hematopoietic stem cell ex vivo expansion” (Scientific Reports, 2015).

Assay [1] deals with human cord blood CD34+ cells (CD34+CD49f+ cells). Put plainly: human cord blood CD34+ cell ex vivo culture and screen. Format: cell-based. The following applies: dose response, Fig. 4B. The method, then:
Based on our study of murine HSCs, we further tested whether these p18SMIs could expand human cord blood CD34^+ cells in ex vivo culture. […] We cultured human cord blood CD34^+ cells for 7 days in HSCs expansion media in the presence of 200 nM of p18SMIs, and then analyzed the percentage and absolute number of CD34^+CD49f^+ cells by flow cytometry. We screened 40 p18SMIs, of which14 compounds could increase the number of CD34^+CD49f^+ cells compared with the control group (Fig. S6). […] Then we conducted a concentration gradient assay on top three p18SMIs with ED50 less than 10 nM (compounds 22, 40 and 41). […] Only in specific doses could they show their expansion effect on human HSCs (Fig. 4B).
Human cord blood samples were collected from consenting donors according to ethically approved procedures at Tianjin Central Hospital of Gynecology Obstetrics (Tianjin, China), under a protocol approved by the Ethical Committee on Medical Research at the Institute of Hematology. Human CD34^+ cord blood cells were isolated using human CD34 MicroBead Kit (MiltenyiBiotec) according to the manufacturer’s protocol after settling red cells with HES and red cells lysis with ACK Lysis Buffer.
Human CD34^+ cells were cultured in expansion medium consisting of StemSpan SFEM (StemCell Technologies) supplemented with 100 ng/mL human stem cell factor (SCF, PeproTech), 50 ng/mL human thrombopoietin (TPO, PeproTech), 100 ng/mL human FMS-like trysine kinase 3 ligand (Flt3L, PeproTech). Human CD34^+ cells were resuspended in expansion medium (5 × 10^4 cells/mL) before being aliquoted in 96-well plates (Costar, Corning Incorporated). Compounds, all with a final concentration of 200 nM, were dissolved in DMSO and added immediately in cell suspension after plating. The final concentration of DMSO in the control group was the same as in the compounds-treated group. Cells were cultured at 37 °C in 5% CO2. Based on the results of primary screening upon human cells and the results of ED50, we chose three compounds for further experiments. The expansion medium was changed to StemSpan SFEM (StemCell Technologies) supplemented with 100 ng/mL human stem cell factor (SCF, PeproTech), 100 ng/mL human thrombopoietin (TPO, PeproTech), 100 ng/mL human FMS-like trysine kinase 3 ligand (Flt3L, PeproTech) and 100 ng/mL human interleukin-6 (IL-6, PeproTech) for better expansion effect. The incubation condition was consistent with before.
Phenotypes analysis of cultured cells was performed on a BD FACS Array (Becton Dickinson Biosciences) using a combination of the following antibodies: APC anti-CD34 (BD Biosciences), PE anti-CD49f (BD Biosciences). Stained cells were washed once with PBS and then measured and analyzed on an FACS analyzer (FACSArray, BD Biosciences).

Assay [2] deals with HSCs (CD34−LKS cells). Put plainly: single hematopoietic stem cell in vitro culture (nmEM colony) assay. The class given is cell-based, mouse. The following applies: single CD34−LKS cell culture, 14 days, ratio of nmEM wells to DMSO control. The procedure: We biologically assessed the 22 putative p18SMI compounds for their ability to maintain HSCs stem cell characteristics, to be specific self-renewal and multi-lineage differentiation, using single cell cultures. […] Thus, we employed single HSC culture to assess p18SMI compounds’ effect upon HSCs. CD34^−LKS cells from C57BL/6 mice were individually deposited into a 96-well plate (one cell/well). The single cell was cultured for 14 days in 100 μL of serum-free medium (Gibco) containing 100 ng/mL of mouse stem cell factor (SCF), 10 ng/mL of mouse interleukin-3 (IL-3), 25 ng/mL of human thrombopoietin (TPO), 2 U/mL of human erythropoietin (EPO) and differing concentrations of the p18SMI compound. Cells were cultured 14 days for in vitro colony formation and colonies were then cytospined and analyzed by flow cytometry to test the subpopulation of cultured cells. Neutrophils (n), macrophages (m), erythroblasts (E) or megakaryocytes (M) were identified by the cell marker of Gr-1, Mac-1, Ter-119 and CD41 using flow cytometry. The wells from each group that generated all lineages (nmEM) were counted and the ratio to the control group (DMSO) was calculated.
Single CD34^-LKS cells from C57BL/6 mice were individually deposited into each well of a 96-well plate along with 100 μL of serum free medium (Gibco) containing 100 ng/mL of mouse SCF, 10 ng/mL of mouse IL-3, 25 ng/mL of human TPO, 2 U/mL of human EPO and p18SMI compounds (different dilutions). Cells were cultured in a 37 °C, 5% CO2 incubator for 14 days for ex vivo colony formation. Colonies were then cytospined and analyzed using flow cytometry. Neutrophils (n), macrophages (m), erythroblasts (E) or megakaryocytes (M) were identified based on their cell surface maker, Gr-1, Mac-1, Ter119 and CD41. Cells were measured on an FACS analyzer (FACSArray, BD Biosciences). […] The wells from each group that generated all lineages (nmEM) were counted. The ratio of p18SMI compound treatment group to the control group (DMSO-treated) was calculated and fitted to a curve to calculate the ED50 value using GraphPad Prism v6.0.

The test system of assay [3] is LT-HSCs. Also on record: method as in PMID 25692908. Conditions: CDK inhibitor alone; cited from earlier work.
In assay [4] the test system is HSCs (bone marrow MNCs). The assay is described as follows: cobblestone area forming cells (CAFC) assay with limiting dilution assay (LDA). Format: cell-based, mouse. The following applies: day 35. The procedure:
We also investigated whether the increased number of phenotypic SLAM^+LT-HSCs in short-term culture assays was correlated with an increase in functional LT-HSCs. Cobblestone area forming cells (CAFC) assay combined with limiting-dilution assays (LDA) were performed to measure the frequency of HSCs[19][22][30]. Compared with the control group (HSC frequency is 1 in 112,559 of the original plated cells), the frequency of HSC at day 35 (indicating the activity of hematopoietic reconstitution capacity) was 2.7-fold and 3.0-fold higher in the cultures treated with XIE18–6 (HSC frequency is 1 in 42,490 of the original plated cells) and compound 40 (HSC frequency is 1 in 37,524 of the original plated cells) (p < 0.001, Fig. 3C), respectively.
Freshly isolated bone marrow MNCs from mice, 6–8 weeks old, were plated in a 24-well plate with 1 mL Dexter’s medium at a density of 2 × 10^6 cells per mL in the absence or presence of different doses of the tested compounds. The culture was maintained at 33 °C with 5% CO2. The number of cobblestone areas (CAs) was counted weekly. The medium was also replaced with half fresh medium on a weekly basis. For the limiting dilution analysis (LDA) of the test cells, different limiting doses were plated on the irradiated stromal cells in 96-well plates containing 200 μL of M5300 medium (StemCell Technologies) supplemented with 10^−6 M hydrocortisone. Each group was done with 20 replicates well. Small-molecule compounds were added to the co-culture system at different doses. Half of the medium in each well was replaced with fresh medium containing the test compounds weekly. The existence of CA in each well was evaluated under an inverted microscope at weekly intervals for 5 weeks. Based on the Poisson distribution of the negative wells, the frequency of long-term initiating cells was calculated with L-Calc software (StemCell Technologies).

For assay [5], the system named is LT-repopulating HSCs (CD34-LKS cells). The assay is described as follows: competitive bone marrow transplantation (cBMT) assay. The class given is in vivo, mouse. The method, then:
Figure 3 Treatment of c-Kit-enriched murine BM cells with p18SMI compounds enhances HSC expansion. (A) The average number of total cells, HSPCs (Lin^−Sca1^+) and long term (LT)-HSCs (Lin^-Sca1^+CD48^−CD150^+) were analyzed by flow cytometry. (B) Single CD34^−LKS cell were deposited into each well of a 96-well plate, along with differentiation medium plus different concentrations of p18SMI compounds to show the dose-response effect of p18SMI compounds. (C) CAFC-LDA assay of cells treated with XIE18-6, compound 40 and DMSO to reveal the frequency of primitive HSCs. Above data (A–C) is mean ± SEM for all experiments of two or more and were performed in duplicate or triplicate. (D) Experimental design for transplantation (n = 10). CD34^-LKS cells were sorted into 96-well plates at 50 cells/well and cultured for 3 days with cytokine plus 20 μM of compounds or DMSO. Cells from each well were mixed with 2 × 10^6 freshly isolated bone marrow MNCs and co-transplanted by tail-vein injection into lethally irradiated CD45.2 recipient mice. 16 weeks after transplantation, bone marrow MNCs were stained to determine the engraftment level of donor cells. Bone marrow MNCs were also stained for lineage analysis. Multi-lineage differentiation was examined by flow cytometry. GM, T and B indicate lineages for myeloid, T and B cells, respectively. (E,F) The engraftment levels at 16 weeks after primary transplantation, and multi-lineage differentiation profile. Data is mean ± SEM for all experiments (***p < 0.001, **p < 0.01). TEXT PRINTED IN THE PICTURE: (E) #40: Engrafment%: *** 5.93X | (E) XIE18-6: Engrafment%: ** 3.01X DOUBTS OF THE COPYIST ABOUT THIS PICTURE: Panel E: 5.93X and 3.01X are printed on brackets running from #40 and from XIE18-6 to DMSO. No measure is printed beside them, so the axis label 'Engrafment%' was used as the measure.
The increased frequency and total number of functional LT-HSCs after treatment with p18SMI compounds was further confirmed by competitive bone marrow transplantation (cBMT) assay (Fig. 3D). CD34^-LKS cells were first sorted and cultured w/o p18SMI compound for 3 days. Then the cultured cells were gathered and co-transplanted into lethally irradiated mice with competitor cells. […] Moreover, the engraftment of the group treated with compound 40 was double of that of the group treated with XIE18–6.

For `COC(=O)[C@H](NS(=O)(=O)c1ccc(NC(C)=O)cc1)c1ccccc1` [Compound 22], in assay [1], the “expansion of human HSCs in concentration gradient assay” value was “concentration related”. On to `O=C(O)c1ccc(S(=O)(=O)NC2CCCCC2)cc1` [Compound 39, 4-(N-cyclohexylsulfamoyl)benzoic acid], for which the “ED50 (activity to promote the expansion of HSCs)” value in assay [2] is 0.120 µM. In the case of `CC(=O)Nc1ccc(C(=O)Oc2ccc3c(C(C)C)cc(=O)oc3c2)cc1` [Compound 41, 4-Isopropyl-2-oxo-2H-chromen-7-yl 4-acetamidobenzoate], in assay [1], the “expansion of human HSCs in concentration gradient assay” value was “concentration related”. As for `CC(=O)c1c(C)c2cnc(Nc3ccc(N4CCNCC4)cn3)nc2n(C2CCCC2)c1=O` [PD0332991], in assay [3], the “maintenance of HSCs population” value was “could not maintain HSCs population”.

Turning to `CC(C)(C)c1cnc(CSc2cnc(NC(=O)C3CCNCC3)s2)o1` [SNS032], the “maintenance of HSCs population” value in assay [3] was “could not maintain HSCs population”. Consider `CC(=O)Nc1ccc(S(=O)(=O)Oc2ccc3c(C)cc(=O)oc3c2)cc1` [XIE18-6], for which, in assay [4], the “HSC frequency (1 in x of the original plated cells)” value is 42,490 and the “frequency of HSC, fold higher than control group” value stood at 2.7 fold. Also, the “ED50 (activity to promote the expansion of HSCs)” value in assay [2] was found to be 0.1055 µM. For the same compound, the “multi-lineage differentiation profile (GM, T, B) compared with the control group” value in assay [5] (16 weeks after transplantation) is given as “did not cause predominant growth of any specific lineages”. Also, in assay [5] (CD34-LKS cells cultured 3 days with 20 μM compound, co-transplanted with competitor cells into lethally irradiated mice, bone marrow 16 weeks after transplantation), the “increase in engraftment compared with the DMSO control group” value amounted to 3.01 fold. For the same compound, the “increase in engraftment compared with the uncultured group” value in assay [5] (cells cultured 3 days with 20 μM compound, 16 weeks after transplantation) came to 2.20 fold.
